Source: patent US20140289973A1, “1-Hexyl-1H-Pyrazole-4,5-Diamine Hemisulfate, and Its Use in Dyeing Compositions” (The Procter & Gamble Company, priority 2012, published 2014)

Assay: Storage stability of C6-pyrazole salts, HPLC measurement of dimer formation
Format: physicochemical
Conditions: for Amount of dimers at the time point t0: t0, sample of about 1.5 g spread on filter paper, HPLC, dimer of formula (II); for Amount of dimers at the time point t1: t1, 23 days in closed dark storage room at 21° C., controlled humidity; for Amount of dimers at the time point t2: t2, 26 days: 23 days dark, then 3 days without light protection under lab hood at room temperature, higher air humidity; for Amount of dimers at the time point t3: t3, 31 days: 5 extra days under the same conditions as t2
Experimental: As summarized in the table below, three 1-hexyl-1H-pyrazole-4,5-diamine salts were synthesized through precipitation of the free base in presence of the corresponding acids and purification to obtain the hemisulfate, sulfate and dihydrochloride salts. Each sample was then placed on paper.
In order to measure and compare the stability of the three different salts, a small amount of each sample was taken at four different time points and an HPLC analysis was conducted in order to measure the formation of the undesired dimer of formula (II).

SMILES	Rate of formation of the dimer impurity (compared with the sulfate and dihydrochloride salts, storage conditions of table 1)	Stability compared with the corresponding sulfate and dihydrochloride salts (conditions of storage described in table 1)	Amount of dimers at the time point t0 [ppm]	Amount of dimers at the time point t1 [ppm]	Amount of dimers at the time point t2 [ppm]	Amount of dimers at the time point t3 [ppm]
CCCCCCn1ncc(N)c1N.CCCCCCn1ncc(N)c1N.O=S(=O)(O)O [C6-Pyrazole hemisulfate, 1-hexyl-1H-pyrazole-4,5-diamine hemisulfate]	much lower	more stable	6	37	43	74
CCCCCCn1ncc(N)c1N.O=S(=O)(O)O [C6-Pyrazole sulfate]			11	461	726	1083
CCCCCCn1ncc(N)c1N.Cl.Cl [C6-Pyrazole x 2 HCl]			45	511	772	1323
